Assay [1] deals with NFAT luciferase reporter. The experiment in a line: NFAT luciferase reporter assay in Jurkat T-cells. Type of assay: cell-based. As to conditions: Homo sapiens, PMA/ionomycin, FIG. 1C, n=6. (In a reporter assay the amount or activity of a reporter protein is the signal.)
Assay [2] deals with T1, calcineurin-NFATc2 interaction (Homo sapiens, UniProt P16298+Q13469, H160N).
T1 construct: calcineurinA (1-400, H160N) and NFATc2 (1-415) in Jurkat T-cells; expressed in transfected cells; host or cells: Jurkat T-cells
T1 sequence (Q13469 1-415): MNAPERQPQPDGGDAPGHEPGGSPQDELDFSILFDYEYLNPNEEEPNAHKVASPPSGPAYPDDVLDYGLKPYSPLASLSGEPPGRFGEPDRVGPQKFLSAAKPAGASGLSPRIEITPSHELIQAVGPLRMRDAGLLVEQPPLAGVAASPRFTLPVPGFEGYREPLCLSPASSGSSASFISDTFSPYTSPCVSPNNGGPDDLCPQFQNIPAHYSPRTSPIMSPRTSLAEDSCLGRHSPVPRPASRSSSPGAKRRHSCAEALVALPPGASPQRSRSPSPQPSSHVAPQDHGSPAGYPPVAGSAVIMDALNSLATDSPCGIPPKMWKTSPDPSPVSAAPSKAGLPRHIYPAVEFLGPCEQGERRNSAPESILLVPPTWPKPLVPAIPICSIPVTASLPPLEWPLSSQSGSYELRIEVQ
Briefly: Mammalian two-hybrid assay of calcineurin and NFATc2 in Jurkat T-cells. It counts as cell-based.

Assay [3] concerns murine skin transplant. The experiment in a line: Mouse skin transplantation with adoptive transfer of murine cells (parallel experiment). It counts as in vivo. As to conditions: murine skin and total murine T-cells. An excerpt:
FIG. 5. […] (A) Representative skin grafts at different days post-transplantation. Human foreskin was transplanted onto Pfp/Rag2−/− mice. 1.0×10^8 human peripheral blood lymphocytes (PBL) were adoptively transferred into each animal at Day 7 post-transplantation. Administration of clofazimine or carrier control (olive oil) was also initiated at Day 7. * Days after skin transplantation/cell transfer. (B) Effect of clofazimine on the mean survival time of transplanted human (n=5) and mouse (n=4) skin grafts. The mouse skin transplantation was performed using Balb/c mice as skin donors, B6 Rag1−/− mice as recipients and PBL from B6 for adoptive transfer.

The subject of assay [4] is mouse mixed lymphocyte reaction. Briefly: Murine mixed lymphocyte reaction. It counts as cell-based. As to conditions: n=3.
In assay [5] the test system is IL-2 proximal promoter driven-luciferase. Briefly: IL-2 luciferase reporter assay in Jurkat T-cells (PMA/ionomycin). As to conditions: for IC50: n=6. Type of assay: cell-based, human.

In general, IC50 refers to the concentration that gives 50% inhibition.

“Also recorded” adds a separate entry of the source. Where two headings read alike, the source gives them in different places.

`CC(C)/N=c1\cc2n(-c3ccc(Cl)cc3)c3ccccc3nc-2cc1Nc1ccc(Cl)cc1` [clofazimine, Clofazimine]: the IC50 is 113 ± 30 nM in assay [1]; 41.6 ± 8.4 nM in assay [5] (Homo sapiens, Jurkat, Kv1.3 overexpression low to high, 1st curve, read-out: IC50, IL-2 luciferase reporter, Kv1.3 overexpression); 41 ± 14.5 nM in assay [5] (Homo sapiens, Jurkat, Kv1.3 overexpression low to high, 2nd curve, read-out: IC50, IL-2 luciferase reporter, Kv1.3 overexpression); 386 ± 214 nM in assay [5] (Homo sapiens, Jurkat, Kv1.3 overexpression low to high, 3rd curve, read-out: IC50, IL-2 luciferase reporter, Kv1.3 overexpression); 1370 ± 520 nM in assay [5] (Homo sapiens, Jurkat, Kv1.3 overexpression low to high, 4th curve, read-out: IC50, IL-2 luciferase reporter, Kv1.3 overexpression); 1460 ± 630 nM in assay [5] (Homo sapiens, Jurkat, Kv1.3 overexpression low to high, 5th (highest) curve, read-out: IC50, IL-2 luciferase reporter, Kv1.3 overexpression). Besides, the IC50 was determined as 21.8 ± 4.4 nM in assay [5] (Homo sapiens, Jurkat, PMA/ionomycin-stimulated Jurkat T-cells, FIG. 1A, read-out: IC50, IL-2 luciferase reporter); 49.9 ± 13 nM in assay [5] (Homo sapiens, Jurkat, control EGFP-siRNA lentiviral transduced Jurkat T-cells, read-out: IC50, IL-2 luciferase reporter); 10.5 ± 2.4 nM in assay [5] (Homo sapiens, Jurkat, shKv1.3-4 (Kv1.3 knockdown) transduced Jurkat T-cells, read-out: IC50, IL-2 luciferase reporter); 56 ± 14.8 nM in assay [5] (Homo sapiens, Jurkat, PMA/ionomycin, FIG. 1C, read-out: IC50, IL-2 luciferase reporter); 22 nM in assay [5] (PMA/ionomycin-stimulated Jurkat T-cells, FIG. 1A, read-out: IC50, IL-2 luciferase reporter). Moreover, the “effect on calcium-dependent NFAT-calcineurin interaction” value in assay [2] is given as “inhibited the calcium-dependent NFAT-calcineurin interaction in a dose-dependent manner”; in assay [2] (listed as Clofazimine) it was “inhibits the calcium-dependent enhancement”. Further, the “effect on survival of murine skin transplant” value in assay [3] is “no effect on the survival”. Also, in assay [4], the “effect on murine mixed lymphocyte reaction” value was “failed to observe a dose-dependent inhibition; also recorded: Biphasic effects”. For the same compound, in assay [5] (highest Kv1.3 expression plasmid (2 μg)), the “increase in IC50 value upon Kv1.3 overexpression” value was 35 fold. In addition, the “decrease in IC50 values upon Kv1.3 knockdown” value in assay [5] (shKv1.3-4 vs shRNA against EGFP) is approximately 5 fold.

Values taken from patent US8669257B2, “Phenazine derivatives and uses thereof as potassium channel modulators” (The Johns Hopkins University, priority 2007, dated 2014).
